Molecular target: T1, human TREK-1 (Homo sapiens, UniProt O95069)
T1 construct: expressed in transfected cells
T1 sequence (O95069 1-426): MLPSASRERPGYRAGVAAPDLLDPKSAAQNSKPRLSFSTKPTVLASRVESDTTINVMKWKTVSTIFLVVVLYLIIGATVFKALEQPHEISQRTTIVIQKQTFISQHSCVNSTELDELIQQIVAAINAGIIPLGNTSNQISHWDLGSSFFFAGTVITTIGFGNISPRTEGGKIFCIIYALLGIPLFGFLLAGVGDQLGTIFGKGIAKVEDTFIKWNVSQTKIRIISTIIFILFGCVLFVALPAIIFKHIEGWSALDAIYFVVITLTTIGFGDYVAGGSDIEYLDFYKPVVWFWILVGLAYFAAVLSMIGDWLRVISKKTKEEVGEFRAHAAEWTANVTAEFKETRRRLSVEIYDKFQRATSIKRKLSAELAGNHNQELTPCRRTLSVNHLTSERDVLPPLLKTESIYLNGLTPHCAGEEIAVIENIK
Assay: TREK-1 Thallium (Tl+) flux assay, Method 1
Assay type: cell-based
Conditions: TREK-1 Thallium (Tl+) flux assay; values without footnote *12 are Method 1
Procedure: The term “thallium flux assay” herein refers to a fluorescence-based assay used to monitor the activity of TREK channels. Thallium is a congener of potassium that readily fluxes through the pore of TREK channels. Thallium flux is measured using a commercially available, thallium-sensitive fluorescent dye called Thallos. The detail method is described below.
CHO-K1 cells stably expressing human TREK-1 were plated in 384-well plates, cultured overnight, loaded with Thallos dye the following day. Test compounds or control compound (tert-butyl (3-((4-(benzyloxy)-2-methylphenyl)carbamoyl)-4-chlorophenyl)carbamate) or 0.3% DMSO (vehicle control) which were prepared on separate plates were added to the cell plates and incubated for 10 min, and then the cells were treated with thallium stimulus buffer to initiate thallium flux. To measure the efficacy and potency of test compounds, the change in fluorescence intensity (ΔRatio) and % inhibition were calculated using the following equations:
ΔRatio=(fluorescence intensity at 25 seconds after thallium addition)/(average of fluorescent intensity before thallium addition)

SMILES: CC(=O)N1CCOC(Cn2ncc(Cl)c2C(=O)Nc2ncc(C#Cc3ccccc3)cc2F)C1 (stereo not shown) [Compound 27, 1-((4-acetylmorpholin-2-yl)methyl)-4-chloro-N-(3-fluoro-5-(phenylethynyl)pyridin-2-yl)-1H-pyrazole-5-carboxamide]
- IC50: 90 nM

SMILES: Cc1cc(C#Cc2ccccc2)cnc1NC(=O)c1c(Cl)cnn1C(C)C1CCN(C(=O)C(C)C)CC1 (stereo not shown) [Compound 28, 4-chloro-1-(1-(1-isobutyrylpiperidin-4-yl)ethyl)-N-(3-methyl-5-(phenylethynyl)pyridin-2-yl)-1H-pyrazole-5-carboxamide]
- IC50: 90 nM

SMILES: CC(=O)N1CCC(n2ncc(Cl)c2C(=O)Nc2ncc(C#Cc3ccccc3)cc2C)C(F)C1 (stereo not shown) [Compound 29, 1-(1-acetyl-3-fluoropiperidin-4-yl)-4-chloro-N-(3-methyl-5-(phenylethynyl)pyridin-2-yl)-1H-pyrazole-5-carboxamide]
- IC50: 100 nM

SMILES: CC(=O)N1CC[C@@H](n2ncc(Cl)c2C(=O)Nc2ncc(C#Cc3ccccc3)cc2C)[C@H](F)C1 [Compound 30, […]]
- IC50: 100 nM

SMILES: CC(=O)N1CCC(C(C)n2ncc(Cl)c2C(=O)Nc2ncc(C#Cc3ccccc3)cc2C)CC1 (stereo not shown) [Compound 32, 1-(1-(1-acetylpiperidin-4-yl)ethyl)-4-chloro-N-(3-methyl-5-(phenylethynyl)pyridin-2-yl)-1H-pyrazole-5-carboxamide]
- IC50: 100 nM

SMILES: CC(=O)N1CCC(n2ncc(Cl)c2C(=O)Nc2c(F)cc(C#Cc3ccccc3)cc2F)CC1 [Compound 33, 1-(1-acetylpiperidin-4-yl)-4-chloro-N-(2,6-difluoro-4-(phenylethynyl)phenyl)-1H-pyrazole-5-carboxamide]
- IC50: 110 nM

SMILES: CCC(=O)N1CCC(n2ncc(Cl)c2C(=O)Nc2ncc(C#Cc3ccccc3)cc2F)CC1 [Compound 34, 4-chloro-N-(3-fluoro-5-(phenylethynyl)pyridin-2-yl)-1-(1-propionylpiperidin-4-yl)-1H-pyrazole-5-carboxamide]
- IC50: 110 nM

SMILES: CC(=O)N1CCC(C(C)n2ncc(Cl)c2C(=O)Nc2ncc(C#Cc3ccccc3)cc2F)CC1 (stereo not shown) [Compound 35, 1-(1-(1-acetylpiperidin-4-yl)ethyl)-4-chloro-N-(3-fluoro-5-(phenylethynyl)pyridin-2-yl)-1H-pyrazole-5-carboxamide]
- IC50: 110 nM

SMILES: Cc1cc(C#Cc2cccs2)cnc1NC(=O)c1c(Cl)cnn1C1CC2(C1)CN(C(=O)C1CC1)C2 [Compound 36, 4-chloro-1-(2-(cyclopropanecarbonyl)-2-azaspiro[3.3]heptan-6-yl)-N-(3-methyl-5-(thiophen-2-ylethynyl)pyridin-2-yl)-1H-pyrazole 5-carboxamide]
- IC50: 110 nM

SMILES: CC(=O)N1CCC(n2ncc(Cl)c2C(=O)Nc2c(C)cc(C#Cc3ccccc3)cc2F)CC1 [Compound 37, 1-(1-acetylpiperidin-4-yl)-4-chloro-N-(2-fluoro-6-methyl-4-(phenylethynyl)phenyl)-1H-pyrazole-5-carboxamide]
- IC50: 120 nM

SMILES: Cc1cc(C#Cc2ccc(F)cc2)cnc1NC(=O)c1c(Cl)cnn1[C@H]1CC[C@@H](NC(=O)C2COCCO2)CC1 (stereo partly drawn) [Compound 38, 1-(cis-4-(1,4-dioxane-2-carboxamido)cyclohexyl)-4-chloro-N-(5-((4-fluorophenyl)ethynyl)-3-methylpyridin-2-yl)-1H-pyrazole-5-carboxamide]
- IC50: 120 nM

SMILES: CC(=O)N1CCC(C#N)(Cn2ncc(Cl)c2C(=O)Nc2ncc(C#Cc3ccccc3)cc2F)CC1 [Compound 39, 1-((1-acetyl-4-cyanopiperidin-4-yl)methyl)-4-chloro-N-(3-fluoro-5-(phenylethynyl)pyridin-2-yl)-1H-pyrazole-5-carboxamide]
- IC50: 120 nM

SMILES: CC(=O)N1CC(n2ncc(Cl)c2C(=O)Nc2ncc(C#Cc3ccccc3)cc2F)C1 [Compound 40, 1-(1-acetylazetidin-3-yl)-4-chloro-N-(3-fluoro-5-(phenylethynyl)pyridin-2-yl)-1H-pyrazole-5-carboxamide]
- IC50: 130 nM
